Laboratory results as given in publication PMC6106167, “Small‐Molecule Neuromedin U Receptor 2 Agonists Suppress Food Intake and Decrease Visceral Fat in Animal Models” (Pharmacology Research & Perspectives, 2018).
Like-named read-outs stand apart in the source and are kept apart here.

Legend:
[1] = target: T1, neuromedin U receptor 2 (NMUR2) (Homo sapiens, UniProt Q9GZQ4); test: GloSensor cAMP inhibition (Gi mode) in hNMUR2 HEK293 cells; no effect in cells lacking NMUR2; FLIPR calcium EC50 […]; format: cell-based; details: read-out: Gi/o EC50
T1 construct: human NMUR2 stably expressed in HEK293 cells

[2] = target: T1, neuromedin U receptor 2 (NMUR2); test: as above; format: cell-based; details: read-out: Gi/o EC50; remark: listed apart in the source

T1 sequence (Q9GZQ4 whole entry): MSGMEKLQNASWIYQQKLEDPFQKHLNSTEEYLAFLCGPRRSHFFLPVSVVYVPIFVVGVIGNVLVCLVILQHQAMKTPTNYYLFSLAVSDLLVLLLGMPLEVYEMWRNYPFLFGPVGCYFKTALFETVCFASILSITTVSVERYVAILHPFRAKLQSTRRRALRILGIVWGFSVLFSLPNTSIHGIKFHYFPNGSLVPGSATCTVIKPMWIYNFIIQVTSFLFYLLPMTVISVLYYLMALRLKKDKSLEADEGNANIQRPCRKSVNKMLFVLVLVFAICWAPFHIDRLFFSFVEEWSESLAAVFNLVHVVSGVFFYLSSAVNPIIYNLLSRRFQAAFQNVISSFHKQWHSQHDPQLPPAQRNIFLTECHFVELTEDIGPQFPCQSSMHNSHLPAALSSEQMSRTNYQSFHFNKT

Compound	EC50 [1]	EC50 [2]
N=C(N)NCCOC(c1ccccc1)(c1ccccc1)c1ccccc1 [NY0116]	1.69 nM	
N=C(N)NCCCOC(c1ccccc1)(c1ccccc1)c1ccccc1 [NY0128]		0.71 nM
